According to patent US11000033B2, “Ketone or oxime compound, and herbicide” (NISSAN CHEMICAL CORPORATION, priority 2014, dated 2021):

Key:
Assay type in all cases: in vivo
[1] = test system: wheat; experiment: Test Example 4: effect on crop by soil treatment (symbol e); conditions: for e: wheat, effect on crop grade: application herbicide amount 320 g/ha; for e: wheat, effect grade on crop: 320 g/ha
Outline: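 Greenhouse culture at 25° C. to 30° C. followed sowing of seed in spots on sterilized diluvial soil with a soil cover close to 1.5 cm thick.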

[2] = test system: soybean; experiment: Test Example 5: effect on crop by foliage application, plastic box (symbol d); conditions: 320 g/ha, 3 weeks after application
Outline: (§1)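 Plants were raised from seed in a greenhouse (25° C. to 30° C.) after sowing in a plastic box of sterilized diluvial soil.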

[3] = test system: Chenopodium album; experiment: Test Example 5: herbicidal effect by foliage application, plastic box (symbol O); conditions: 320 g/ha, 3 weeks after application
Outline: (§2)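 Seeds were sown in sterilized diluvial soil, covered with about 1.5 cm of soil and grown 14 days in a greenhouse at 25° C. to 30° C. An emulsifiable formulation diluted in water to a set rate was sprayed over foliage, and injury was scored 3 weeks later.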

[4] = test system: Veronica persica; experiment: Test Example 5: herbicidal effect by foliage application, plastic box (symbol R); conditions: 320 g/ha, 3 weeks after application
Outline: as §2

[5] = test system: Echinochloa oryzacola Vasing.; experiment: Test Example 1: herbicidal activity, application before weed generation in submerged conditions (symbol A); conditions: application herbicide amount 320 g/ha
Outline: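 Compound emulsion was diluted to a set herbicide amount and applied to the water surface on the sowing day, into submerged (4 cm) alluvial-soil pots sown with mixed weed seeds and transplanted 2.5-leaf rice. Pots were held in a 25–30 °C greenhouse, and weeds were scored 0–5 by herbicidal ratio after 3 weeks.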

[6] = test system: Apera spica-venti; experiment: Test Example 4: herbicidal effect by soil treatment (symbol L); conditions: application herbicide amount 320 g/ha
Outline: (§3)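 Seeds were sown in sterilized diluvial soil, covered with about 1.5 cm of soil, and the soil surface was sprayed with a water-diluted emulsion of the compound at a predetermined rate. Plants grew in a greenhouse at 25° C. to 30° C.; effects were scored visually 3 weeks after application.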

[7] = test system: Veronica persica; experiment: Test Example 4: herbicidal effect by soil treatment (symbol R)
Outline: as §3

[8] = test system: Cyperus difformis; experiment: Test Example 3: herbicidal effect by foliage application, Wagner pot (symbol E); conditions: application herbicide amount 320 g/ha
Outline: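 The compound, formulated as an emulsion and diluted with water to a predetermined rate, is applied uniformly to leaves of two-week-old seedlings growing in submerged alluvial soil at 25–30 °C. Rice is included. Each plant is assessed 3 weeks later using defined criteria.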

[9] = test system: Abutilon theophrasti; experiment: Test Example 4: herbicidal effect by soil treatment (symbol M)
Outline: as §3

[10] = test system: Amaranthus retroflexus; experiment: Test Example 4: herbicidal effect by soil treatment (symbol N)
Outline: as §3

[11] = test system: corn; experiment: Test Example 5: effect on crop by foliage application, plastic box (symbol c); conditions: 320 g/ha, 3 weeks after application
Outline: as §1

[12] = test system: Galium spurium; experiment: Test Example 5: herbicidal effect by foliage application, plastic box (symbol Q); conditions: 320 g/ha, 3 weeks after application
Outline: as §2

[13] = application herbicide amount 320 g/ha

Row | Structure (SMILES) | e: wheat, effect on crop grade [1] | d: soybean, effect on crop grade [2] | O: Chenopodium album, herbicidal effect grade [3] | R: Veronica persica, herbicidal effect grade [4] | Herbicidal effect grade, A: Echinochloa oryzacola Vasing. [5] | L: Apera spica-venti, herbicidal effect grade [6] | R: Veronica persica, herbicidal effect grade [7, 13] | herbicidal effect on E, grade 0-5 [8] | M: Abutilon theophrasti, herbicidal effect grade [9, 13] | N: Amaranthus retroflexus, herbicidal effect grade [10, 13] | c: corn, effect on crop grade [11] | e: wheat, effect grade on crop [1] | R: Veronica persica, herbicidal effect grade ([7]; 320 g/ha) | also measured
1 | C=Cc1cc(C)c(C2=C(O)CC(CC(C)=NOC)C2=O)c(C)c1 (mixture of isomers) [6-031] | 0 (Herbicidal ratio of 5% or lower (almost no effect)) | 0 (Herbicidal ratio of 5% or lower (almost no effect)) | 3 (Herbicidal ratio of 40% or higher and lower than 70%) | 1 (Herbicidal ratio of 5% or higher and lower than 20%) | 3 (Herbicidal ratio of 40% or higher and lower than 70%) | 0 (Herbicidal ratio of 5% or lower (almost no effect)) | 0 (Herbicidal ratio of 5% or lower (almost no effect)) | 2 (Herbicidal ratio of 20% or higher and lower than 40%) | 0 (Herbicidal ratio of 5% or lower (almost no effect)) | 4 (Herbicidal ratio of 70% or higher and lower than 90%) | 4 (Herbicidal ratio of 70% or higher and lower than 90%) |  |  | 
2 | CON=C(C)CC1CC(OS(=O)(=O)CCCCl)=C(c2c(C)cc(C)cc2C)C1=O (centres unmarked) [1-142] |  |  |  |  | 5 (Herbicidal ratio of 90% or more (almost completely withered)) |  |  |  |  |  |  | 3 (Herbicidal ratio of 40% or higher and lower than 70%) | 0 (Herbicidal ratio of 5% or lower (almost no effect)) | d: soybean, effect on crop (criteria 0-5) [2]: 3 (Herbicidal ratio of 40% or higher and lower than 70%); O: Chenopodium album, herbicidal effect (criteria 0-5) [3]: 2 (Herbicidal ratio of 20% or higher and lower than 40%); R: Veronica persica, herbicidal effect (criteria 0-5) [4]: 3 (Herbicidal ratio of 40% or higher and lower than 70%); Q: Galium spurium, herbicidal effect (criteria 0-5) [12]: 3 (Herbicidal ratio of 40% or higher and lower than 70%); M: Abutilon theophrasti, herbicidal effect grade ([9]; 320 g/ha): 0 (Herbicidal ratio of 5% or lower (almost no effect)); N: Amaranthus retroflexus, herbicidal effect grade ([10]; 320 g/ha): 0 (Herbicidal ratio of 5% or lower (almost no effect)); c: corn, effect on crop (criteria 0-5) [11]: 5 (Herbicidal ratio of 90% or more (almost completely withered))
3 | CON=C(C)CC1CC(OC(=O)N2CCCC2)=C(c2c(C)cc(C)cc2C)C1=O (centres unmarked) [1-150] |  |  |  |  | 5 (Herbicidal ratio of 90% or more (almost completely withered)) |  |  |  |  |  |  | 1 (Herbicidal ratio of 5% or higher and lower than 20%) | 0 (Herbicidal ratio of 5% or lower (almost no effect)) | d: soybean, effect on crop (criteria 0-5) [2]: 0 (Herbicidal ratio of 5% or lower (almost no effect)); O: Chenopodium album, herbicidal effect (criteria 0-5) [3]: 0 (Herbicidal ratio of 5% or lower (almost no effect)); R: Veronica persica, herbicidal effect (criteria 0-5) [4]: 0 (Herbicidal ratio of 5% or lower (almost no effect)); Q: Galium spurium, herbicidal effect (criteria 0-5) [12]: 0 (Herbicidal ratio of 5% or lower (almost no effect)); c: corn, effect on crop (criteria 0-5) [11]: 4 (Herbicidal ratio of 70% or higher and lower than 90%)
4 | CON=C(C)CC1CC(OC(=O)C(C)Oc2ccc(Oc3ccc(Cl)cc3Cl)cc2)=C(c2c(C)cc(C)cc2C)C1=O (centres unmarked) [1-163] |  | 2 (Herbicidal ratio of 20% or higher and lower than 40%) | 3 (Herbicidal ratio of 40% or higher and lower than 70%) | 3 (Herbicidal ratio of 40% or higher and lower than 70%) | 5 (Herbicidal ratio of 90% or more (almost completely withered)) |  |  | 5 (Herbicidal ratio of 90% or more (almost completely withered)) |  |  | 4 (Herbicidal ratio of 70% or higher and lower than 90%) | 0 (Herbicidal ratio of 5% or lower (almost no effect)) | 0 (Herbicidal ratio of 5% or lower (almost no effect)) | Q: Galium spurium, herbicidal effect grade [12]: 3 (Herbicidal ratio of 40% or higher and lower than 70%); N: Amaranthus retroflexus, herbicidal effect grade ([10]; 320 g/ha): 4 (Herbicidal ratio of 70% or higher and lower than 90%)
5 | CCCC(=O)C(C(=O)OC)C1CC(O)=C(c2c(C)cc(C)cc2C)C1=O (centres unmarked) [2-020] | 0 (Herbicidal ratio of 5% or lower (almost no effect)) | 0 (Herbicidal ratio of 5% or lower (almost no effect)) | 0 (Herbicidal ratio of 5% or lower (almost no effect)) | 0 (Herbicidal ratio of 5% or lower (almost no effect)) | 2 (Herbicidal ratio of 20% or higher and lower than 40%) | 0 (Herbicidal ratio of 5% or lower (almost no effect)) | 0 (Herbicidal ratio of 5% or lower (almost no effect)) | 0 (Herbicidal ratio of 5% or lower (almost no effect)) | 0 (Herbicidal ratio of 5% or lower (almost no effect)) | 1 (Herbicidal ratio of 5% or higher and lower than 20%) | 1 (Herbicidal ratio of 5% or higher and lower than 20%) |  |  | 
6 | Cc1cc(C)c(C2=C(O)CC(CC(=O)C(C)(C)C)C2=O)c(C)c1 (centres unmarked) [2-022] | 0 (Herbicidal ratio of 5% or lower (almost no effect)) | 0 (Herbicidal ratio of 5% or lower (almost no effect)) | 0 (Herbicidal ratio of 5% or lower (almost no effect)) | 0 (Herbicidal ratio of 5% or lower (almost no effect)) | 1 (Herbicidal ratio of 5% or higher and lower than 20%) | 0 (Herbicidal ratio of 5% or lower (almost no effect)) | 0 (Herbicidal ratio of 5% or lower (almost no effect)) | 2 (Herbicidal ratio of 20% or higher and lower than 40%) | 0 (Herbicidal ratio of 5% or lower (almost no effect)) | 0 (Herbicidal ratio of 5% or lower (almost no effect)) | 3 (Herbicidal ratio of 40% or higher and lower than 70%) |  |  | 
7 | CCC(C)C(=O)CC1CC(O)=C(c2c(C)cc(C)cc2C)C1=O (centres unmarked) [2-024] | 0 (Herbicidal ratio of 5% or lower (almost no effect)) | 0 (Herbicidal ratio of 5% or lower (almost no effect)) | 0 (Herbicidal ratio of 5% or lower (almost no effect)) | 2 (Herbicidal ratio of 20% or higher and lower than 40%) | 2 (Herbicidal ratio of 20% or higher and lower than 40%) | 0 (Herbicidal ratio of 5% or lower (almost no effect)) | 0 (Herbicidal ratio of 5% or lower (almost no effect)) | 0 (Herbicidal ratio of 5% or lower (almost no effect)) | 0 (Herbicidal ratio of 5% or lower (almost no effect)) | 0 (Herbicidal ratio of 5% or lower (almost no effect)) | 3 (Herbicidal ratio of 40% or higher and lower than 70%) |  |  | 
8 | CON=C(C)CC1CC(O)=C(c2c(C)cc(C)cc2OC)C1=O (centres unmarked) [6-037, 3-hydroxy-2-(2-methoxy-4,6-dimethylphenyl)-5-{2-(methoxyimino)propyl}cyclopent-2-enone] | 5 (Herbicidal ratio of 90% or more (almost completely withered)) | 4 (Herbicidal ratio of 70% or higher and lower than 90%) | 3 (Herbicidal ratio of 40% or higher and lower than 70%) | 3 (Herbicidal ratio of 40% or higher and lower than 70%) | 5 (Herbicidal ratio of 90% or more (almost completely withered)) | 5 (Herbicidal ratio of 90% or more (almost completely withered)) | 1 (Herbicidal ratio of 5% or higher and lower than 20%) | 5 (Herbicidal ratio of 90% or more (almost completely withered)) | 5 (Herbicidal ratio of 90% or more (almost completely withered)) | 3 (Herbicidal ratio of 40% or higher and lower than 70%) | 5 (Herbicidal ratio of 90% or more (almost completely withered)) |  |  | 
